In data set [1] the test system is M. tuberculosis strain Erdman. As to the kind of experiment: Modified rapid (acute) murine model of infection. It counts as in vivo, Mycobacterium tuberculosis.
In data set [2] the target is T1, Mtb FtsZ (Mycobacterium tuberculosis, UniProt P9WN95). The settings on record: earlier work of the authors; no reference given; cited from earlier work.
Data set [3] concerns M. tuberculosis H37Rv. Nature of the data set: Microplate Alamar Blue assay (MABA) MIC. In kind it is cell-based. The conditions noted are these: Mycobacterium tuberculosis. Background: Resazurin is reduced to fluorescent resorufin, in cell work by metabolically active cells.
For data set [4], the system named is M. tuberculosis H37Rv. The conditions noted are these: lead selection from SAR studies; cited from earlier work.
In data set [5] the test system is M. tuberculosis NHN20. Nature of the data set: Microplate Alamar Blue assay (MABA) MIC. It counts as cell-based. The conditions noted are these: Mycobacterium tuberculosis.
Data set [6] deals with M. tuberculosis W210. Nature of the data set: Microplate Alamar Blue assay (MABA) MIC. In kind it is cell-based. The conditions noted are these: Mycobacterium tuberculosis.
For data set [7] the following is noted: 100 ng/mL.
Method: (§1) Blood was collected from animals using lithium heparin as anticoagulant, in the Animal Research & Welfare Domain at Disposition, Safety & Animal Research Montpellier (371 rue du Pr. J. Blayac, 34184 Montpellier Cedex 04, France) or vendors such as Charles River. Human plasma using lithium heparin as anticoagulant was provided by the EFS (Etablissement Français du Sang) of Montpellier, France. Plasma was spiked with the compound in order to obtain a final drug concentration of 100 ng/mL (expressed as non-salified compound). The spiked plasma (dedicated to C1h and C4h) was then incubated at 37°C for 1 h and 4 h. Plasma samples were analyzed by LC-MS/MS following protein precipitation. The limit of quantification for compounds was 10 ng/mL. Chromatographic conditions for LC analysis: 10 µL of the sample was injected to Luna Phenomenex C8 (50 mm×2.0 mm, 3 µm), Solvent A: ammonium acetate (0.15 g)/formic acid (2 mL)/HPLC water up to 1000 mL. […] MS/MS condition used for detection: Finnigan TSQ Quantum disco instrument, Excalibur version 2.0 acquisition system, ESI positive ion ionization mode. The mean percent of difference between C1h or C4h and C0 concentrations was calculated.
M%D (%) = 100 × [(C1h or C4h)–C0]/C0
(§2) The compounds were considered as stable if the mean percent of difference between C4h and C0 concentrations was less than 20%.
Data set [8] deals with M. tuberculosis NHN382. Nature of the data set: Microplate Alamar Blue assay (MABA) MIC. In kind it is cell-based. The settings on record: Mycobacterium tuberculosis.
Data set [9] concerns M. tuberculosis TN587. Nature of the data set: Microplate Alamar Blue assay (MABA) MIC. It counts as cell-based. The settings on record: Mycobacterium tuberculosis.
For data set [10] the following is noted: 5 µM, 1 mg/mL microsomal protein, NADPH, 20 min.
Method: (§3) The flavin-containing monooxygenases (FMO)-dependent reactions were run in the presence of bovine serum albumin (BSA, 0.1%) for the duration of 0 and 20 min (with or without microsomal proteins and/or cofactors). […] Following protein precipitation with acetonitrile and their removal by centrifugation, supernatant fluids were analyzed by LC/MS-MS.
(§4) Thermo Finnigan TSQ Quantum Ultra instrument, ESI positive ion ionization mode. Each compound is studied in duplicates. Results are expressed in percentage of lability (or total metabolism).
(§5) Total metabolism = [1– (UC1 Peak Area)/(UC2 Peak Area)] × 100.
(§6) UCn = Unchanged Compound in condition n;
(§7) n = 1: incubation in the presence of NADPH cofactor after T = 20 min.
(§8) n = 2: incubation without cofactor at T = 0 min.
For data set [11] the following is noted: 100 ng/mL. This is another data set of the same source.
Method: as §1
M%D (%) = 100 × [(C1h or C4h)–C0]/C0
as §2
For data set [12] the following is noted: 5 µM, 1 mg/mL microsomal protein, NADPH, 20 min. This is another data set of the same source.
Method: as §3, §4, §5, §6, §7, §8
Data set [13] has as its target T1, Mtb FtsZ. As to the kind of experiment: Transmission electron microscopy of FtsZ polymerization. It counts as biochemical, M. tuberculosis. The settings on record: FtsZ 5 µM, GTP 25 µM.
In data set [14] the test system is M. tuberculosis H37Rv. Nature of the data set: Time-dose growth (OD600 nm) and kill (CFU) curves. It counts as cell-based, Mycobacterium tuberculosis.
For data set [15], the system named is M. tuberculosis clinical isolates. The conditions noted are these: determined and reported; cited from earlier work.

In brackets after ≈: the same amount, converted by molar mass. Several values for one entry are separate records, joined by “and”; a condition that tells them apart may be missing. Equal values may be shown once. Entries after “also recorded” stand apart in the source; their conditions may differ. Read-outs that look alike come from different tables or passages of the source.

Results on four compounds are retold here after publication PMC3988029, “A Trisubstituted Benzimidazole Cell Division Inhibitor with Efficacy against Mycobacterium tuberculosis” (PLoS ONE, 2014).

T1 sequence (P9WN95 whole entry, looked up): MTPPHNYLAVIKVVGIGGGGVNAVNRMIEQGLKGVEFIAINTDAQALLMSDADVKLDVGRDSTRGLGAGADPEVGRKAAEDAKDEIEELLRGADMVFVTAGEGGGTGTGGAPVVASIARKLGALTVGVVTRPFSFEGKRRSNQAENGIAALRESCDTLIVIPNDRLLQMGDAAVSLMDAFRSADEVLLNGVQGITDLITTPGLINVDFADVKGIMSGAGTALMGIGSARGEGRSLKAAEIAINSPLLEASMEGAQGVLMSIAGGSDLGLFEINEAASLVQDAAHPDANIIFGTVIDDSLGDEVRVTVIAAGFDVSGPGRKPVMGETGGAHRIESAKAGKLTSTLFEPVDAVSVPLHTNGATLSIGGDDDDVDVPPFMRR

Turning to `NNC(=O)c1ccncc1` [INH, isoniazid, reference compound], the “CFU counts in the lung and spleen” value in data set [1] (IP 20 mg/kg qd, control drug) was “below the level of detection”.

For the compound `CCCCOC(=O)Nc1cc2nc(C3CCCCC3)[nH]c2cc1N(CC)CC` [SB-P3G2], the “Inhibition of FtsZ polymerization” value in [2] was “inhibit FtsZ polymerization in a dose dependent manner”.

On to `CN(C)c1cc2[nH]c(C3CCCCC3)nc2cc1NC(=O)c1ccc(OC(F)(F)F)cc1` [SB-P17G-A20], for which the MIC in data set [3], in data set [4], in [5], in [6], in data set [8] and in data set [9] was 0.16 µg/mL (≈ 0.358 µM) throughout. The “Plasma Stability (% hydrolysis) Human (4 h)” value in data set [7] turned out to be 0.1%. In [10], the “Liver Microsome Lability Mouse” value is recorded as 45%. Moreover, the “Reduction in the bacterial load in the lungs” value in data set [1] (C57BL/6-Ifngtm1ts mice, 50 mg/kg IP bid, days 5 to 14 post-infection, vs infected controls) was found to be 1.73±0.24 log10 CFU. Further, the “Reduction in the bacterial load in the spleen” value in [1] (C57BL/6-Ifngtm1ts mice, 50 mg/kg IP bid, days 5 to 14 post-infection, vs infected controls, 50 mg/kg) was 2.68 log10 CFU and 2.68±0.48 log10 CFU. Besides, the “Plasma Stability (% hydrolysis) Mouse (4 h)” value in [11] was 24.4%. For the same compound, the “Liver Microsome Lability Human” value in data set [12] is 39%. The “Effect on FtsZ polymers (TEM)” value in data set [13] (40 µM compound) is “the length, density and aggregation was visibly reduced”; in [13] (80 µM compound) it was “dispersed FtsZ polymers are observed”. Besides, in data set [14] (CFU plating, day 0, 2, 4, 6), the “Concentration that steadily reduced bacterial viability” value came to 0.08 µg/mL. Moreover, in data set [14] (growth curves at various concentrations), the Killing characteristics entry is listed as “concentration-dependent inhibitor with sub-MIC inhibitory characteristics”. For the same compound, the “Lowest concentration at which bacterial growth was reduced” value in data set [14] (in some cases) was determined as 0.125 X MIC.

Regarding `CCCCOC(=O)Nc1cc2nc(C3CCCCC3)[nH]c2cc1N(C)C` [SB-P17G-C2], the MIC in data set [4] is 0.06 µg/mL (≈ 0.167 µM). The “Plasma Stability (% hydrolysis) Human (4 h)” value in data set [7] was 6.1%. Further, in data set [15], the “MIC values against clinical isolates” value was 0.06 to 0.13 µg/mL. Moreover, in [10], the “Liver Microsome Lability Mouse” value is reported as 96%. The “Reduction in the bacterial load in the lungs or spleen” value in data set [1] (acute mouse model, data not shown) is “no significant reduction; also recorded: did not significantly reduce the bacterial load in the lungs or spleen”. Besides, the “Liver Microsome Lability Human” value in data set [12] came to 90%.

The MIC is the lowest concentration that inhibits growth of the organism.
